Assay results published in patent EP2951180B1, “2,6,7,8 SUBSTITUTED PURINES AS HDM2 INHIBITORS” (Merck Sharp & Dohme Corp., priority 2013, dated 2014).

Biological target: T1, HDM2 (Homo sapiens, UniProt Q00987)
T1 construct: Thioredoxin (N); made in house; host or cells: E. coli strain BL21(DE3)Rosetta
Test: HDM2 FRET assay (inhibition of binding of FITC labeled p53-pocket peptide to HDM2)
Settings: 0.5 nM HDM2 (residues 17 to 125), 3nM peptide, two hour incubation at room temperature; read-out: FRET IC50
Procedure, shortened: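 Signal is read as the 520/495 nm emission ratio and converted to percent inhibition; nonlinear sigmoidal regression yields IC50. The assay mixes HDM2 (0.5 nM), FITC-p53 peptide (3 nM) and Tb anti-His antibody (0.25 nM) at 0.1% DMSO.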

T1 sequence (Q00987 17-125): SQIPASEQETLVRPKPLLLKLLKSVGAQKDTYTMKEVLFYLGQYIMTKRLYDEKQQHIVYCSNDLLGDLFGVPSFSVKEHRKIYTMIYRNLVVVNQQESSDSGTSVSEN

**Q.** `C[C@H](C1CCC1)N(C)c1nc(C(=O)O)nc2nc(-c3cc(C(C)(C)C)ccn3)n(C[C@H]3CC[C@H](C)CC3)c12` [Example 15.20, 8-(4-tert-butylpyridin-2-yl)-6-{[(1R)-1-cyclobutylethyl] (methyl)amino} -7-[(trans-4-methylcyclohexyl)methyl]-7H-purine-2-carboxylic acid] was tested. Which IC50 did it give?
**A.** 17.9 nM

**Q.** `Cc1cnc(-c2nc3nc(C(=O)O)nc(N[C@H](C)C4CCC4)c3n2C[C@H]2CC[C@H](C)CC2)cc1C` [Example 15.21, 6-{[(1R)-1-cyclobutylethyl]amino}-8-(4,5-dimethylpyridin-2-yl)-7-[(trans-4-methylcyclohexyl)methyl]-7H-purine-2-carboxylic acid] was tested. Which IC50 did it give?
**A.** 8.44 nM

**Q.** How did the IC50 turn out when `CC(C)c1ccnc(-c2nc3nc(C(=O)O)nc(N[C@H](C)C(F)(F)F)c3n2C[C@H]2CC[C@H](C)CC2)c1` [Example 15.22, 7-[(trans-4-methylcyclohexyl)methyl]-8-[4-(1-methylethyl)pyridin-2-yl]-6-{[(1R)-2,2,2-trifluoro-1-methylethyl]amino}-7H-purine-2-carboxylic acid] was run?
**A.** 17.9 nM

**Q.** `C[C@@H](Nc1nc(-c2noc(=O)[nH]2)nc2nc(-c3cc(C(C)(C)O)ccn3)n(C[C@H]3CC[C@H](C)CC3)c12)C1CCC1` [Example 15.23, 3-(6-{[(1R)-1-cyclobutylethyl]amino}-8-[4-(1-hydroxy-1-methylethyl)pyridin-2-yl]-7-[(trans-4-methylcyclohexyl)methyl]-7H-purin-2-yl)-1 ,2,4-oxadiazol-5(4H)-one] was tested. Which IC50 did it give?
**A.** 4.75 nM

**Q.** Which IC50 does the source give for `CCN(c1nc(-c2noc(=O)[nH]2)nc2nc(-c3cc(C(C)C)ccn3)n(C[C@H]3CC[C@H](C)CC3)c12)[C@H](C)C1CCC1` [Example 15.24, 3-(6-{[(1R)-1-cyclobutylethyl](ethyl)amino}-7-[(trans-4-methylcyclohexyl)methyl]-8-[4-(1-methylethyl)pyridin-2-yl]-7H-purin-2-yl)-1,2,4-oxadiazol-5(4H)-one] here?
**A.** 716 nM

**Q.** For `CC(C)c1cc(-c2nc3nc(-c4noc(=O)[nH]4)nc(N[C@H](C)C4CCC4)c3n2C[C@H]2CC[C@H](C)CC2)[nH]c(=O)c1` [Example 15.25, 6-[6-{[(1R)-1-cyclobutylethyl]amino}-7-[(trans-4-methylcyclohexyl)methyl]-2-(5-oxo-2,5-dihydro-1,2,4-oxadiazol-3-yl)-7H-purin-8-yl]-4-(1-methylethyl)pyridin-2(1H)-one], which IC50 is on record?
**A.** 6.74 nM

**Q.** With `C[C@H]1CC[C@H](Cn2c(N3CCOCC3)nc3nc(-c4noc(=O)[nH]4)nc(-c4cccc(Cl)c4)c32)CC1` [Example 16.1, 3-(6-(3-chlorophenyl)-7-(((trans)-4-methylcyclohexyl)methyl)-8-morpholino-7H-purin-2-yl)-1,2,4-oxadiazol-5(4H)-one] as the molecule, how does the IC50 read?
**A.** 71.7 nM

**Q.** For `C[C@H]1COCCN1c1nc2nc(-c3noc(=O)[nH]3)nc(-c3cccc(Cl)c3)c2n1C[C@H]1CC[C@H](C)CC1` [Example 16.2, 3-(6-(3-chlorophenyl)-7-(((trans)-4-methylcyclohexyl)methyl)-8-((S)-3-methylmorpholino)-7H-purin-2-yl)-1,2,4-oxadiazol-5(4H)-one], which IC50 is on record?
**A.** 106 nM

**Q.** `Cc1cccc(-c2nc(-c3n[nH]c(=O)o3)nc3nc(N4CCOCC4)n(C[C@H]4CC[C@H](C)CC4)c23)c1` [Example 16.3, 5-(7-(((trans)-4-methylcyclohexyl)methyl)-8-morpholino-6-(m-tolyl)-7H-purin-2-yl)-1,3,4-oxadiazol-2(3H)-one] was tested. Which IC50 did it give?
**A.** 563 nM

**Q.** With `C[C@H](CO)Nc1nc2nc(-c3noc(=O)[nH]3)nc(-c3cccc(Cl)c3)c2n1C[C@H]1CC[C@H](C)CC1` [Example 16.4, 3-(6-(3-chlorophenyl)-8-(((R)-1-hydroxypropan-2-yl)amino)-7-(((trans)-4-methylcyclohexyl)methyl)-7H-purin-2-yl)-1,2,4-oxadiazol-5(4H)-one] as the molecule, how does the IC50 read?
**A.** 29.8 nM
